Measurements: patent US6624188B1, “Method of treatment with compounds having retinoid-like activity and reduced skin toxicity and lacking teratogenic effects” (Allergan, Inc., priority 1992, dated 2003)
Like-named read-outs stand apart in the source and are kept apart here.

Key:
gestating ICR mice = assay: in vivo teratology study, single oral dose on day 11 of gestation; set-up: species or system mouse; conditions: female, ICR, mouse, in vivo, 17 day of gestation; for # Litters Normal / Teratogenic Effects % Cleft Palate / Teratogenic Effects % Limb Defects / Teratogenic Effects % Resorbed: po
Experimental: The methodology of the study is described as follows:
ICR mice (Ace Animals, Boyertown, Pa.) were used. Mature male and virgin female ICR mice were housed in environmentally controlled rooms and acclimatized to a 12 hour light/dark cycle (light cycle 6 A.M. to 6 P.M.) for 2 weeks prior to use. All animals were maintained on Purina Lab Chow and tap water ad libitum. A group of 3-4 females was caged with a single male of proven fertility for 4 hours. Presence of a vaginal plug immediately afterward was regarded as evidence of successful mating, and this day was designated as day 0 of gestation.
[…] All animals were killed by cervical dislocation under mild ether anesthesia on day 17 of gestation. Upon laparotomy, the fetuses were examined for external malformations and weighed; one-half of each litter was then fixed in 95% ethanol and processed for staining of the skeleton by the rapid, alizarin red-S dye method. These preparations were examined under a dissection microscope to screen for abnormalities in the axial and the appendicular skeleton. The other half of each litter was fixed in Bouin's solution and examined by freehand razor serial sectioning to screen for anomalies of the brain, face, and palate.
Differences in dose-related incidence of malformations and resorptions were assessed by computing percentages of affected conceptuses among total implantation sites. The groups were compared statistically by a method based on Student's t-tests of arcs in square root transformed percentages. Values at 0.05 probability level were considered significant. The median effective dose was calculated by logarithmic curve fitting of the dose-response data.

human sebocyte cultures = assay: human sebocyte culture 3H-thymidine incorporation (DNA synthesis, anti-proliferative effect); assay type: cell-based; conditions: human sebocytes, 8 days treatment, FIG. 2
Excerpt: The retinoid like activity of the compounds used in accordance with the method of treatment of the present invention and of the novel compounds of the invention can be confirmed by several assay procedures. An assay involving human sebocyte cultures measures the inhibition of ^3H-thymidine into cells, and thus measures inhibition of DNA synthesis and thus an anti-proliferative effect on sebocyte (i.e. a sebostatic effect). This assay is also considered a specific assay for effectiveness of a compound as a potential anti-acne drug. The test is conducted as follows.
Face-lift or forehead reduction skins from cosmetic surgeries were used as sources of human sebaceous gland cells (sebocytes).
Isolated sebocytes were plated in type 1 collagen coated-dishes in DMEM/F12 (1:1) medium supplemented with 8% fetal bovine serum, 2% human serum, 10 ng/ml epidermal growth factor, 1 nM cholera toxin, 1 μM hydrocortisone, and penicillin/streptomycin/amphotericin B. Secondary cultures were prepared by plating Dispase dissociated cells in collagen coated 24-well plates.
Sub-confluent secondary cultures were treated with the test compounds or ethanol vehicle every 2-3 days for 8 days in the above medium from which the total serum concentration was reduced to 2% and hydrocortisone was not included. During the last 6 hours of treatment, the cultures were labeled with 2 μCi/ml ^3H-thymidine. DNA from the cells were extracted by thichoroacetic acid and perchloric acid, and assayed for radioactivity by scintillation counting and for content of DNA by the diphenylamine calorimetric method. The results were expressed as CPM/μg DNA, or as per cent of vehicle control which incorporated about 1,000-1,500 cpm/μg DNA.

[1] = tested on: tissue transglutaminase (tTGASE) in HL-60 cells; assay: Tissue Transglutaminase Assay (tTGASE) in HL-60 Cells; assay type: cell-based; conditions: FIGS. 6-9
Experimental: Other assays in which the retinoid like activity of the compounds used in accordance with the invention are confirmed are the HL-60 transglutaminase induction and HL-60 differentiation assay, the procedures of which are described as follows.
HL-60 cells were grown as a suspension culture in T-162 cm^2 flasks in serum-free RPMI 1640 medium supplemented with insulin (5 μg/ml), transferrin (5 μg/ml), and selenium (3 nM). The cells (1×10^6 cells/well, in 6-well dishes) were treated with serial dilutions of test compounds in the above RPMI 1640 medium which was additionally supplemented with […] dibutyryl cyclic adenosine monophosphate, a component found to be necessary for efficient differentiation of the cells. Ethanol was used in the vehicle control cultures. After 1 days of incubation at 37° C. in a 7.5% CO2 incubator, the cells were collected in a set of tubes and pelleted by centrifugation. The cells were lyzed in a buffer containing 20 mM Tris-HCl, pH 7.5, 1 mM EDTA, and 0.5% Triton X-100. An aliquot of the cell lysate was assayed for tTGASE activity in a reaction mixture containing 20 mM Tris-HCl, pH 7.5, 5 mM CaCl2, 2 mg/ml dimethylcasein, 15 mM B-mercaptoethanol and 50 μCi/ml [2,3-^3H] putrescine dihydrochloride. The reaction was carried out for 60 minutes in a 37° C. shaking water bath. The reaction was stopped by an addition of 10% trichloroacetic acid containing 0.1% putrescein. An aliquot of the stopped reaction mixture was spotted on Whatman 3 MM filter discs. The filter discs, along with the control blank filter discs, were washed twice with 5% trichloroacetic acid containing 0.1% putrescein and twice with methanol. After drying under a heat lamp, the radioactivity in the filter discs was determined by scintillation counting. An aliquot of the cell lysates was also assayed for […] by the Bradford method (Bio-Rad). After subtracting the radioactivity from the control blank filter discs, the data were calculated and expressed as pmol/min/mg protein.
As is well understood in the art, induction of tranglutaminase activity in the just-described assay is an early marker of retinoid like activity.

female hairless mice = assay type: in vivo; conditions: animals died from a group of 5
Experimental: Specifically, tests to determine skin toxicity were performed on certain examplary compounds in accordance with the present invention, and on certain analogous compounds which lack the R3 substituent in accordance with Formula 1, 2 or 3. A “Two Week Acute Skin Toxicity Study of Multiple Topical Applications in Female Hairless Mice” is conducted as follows: a daily dose (expressed in nanomoles) of the “test compound” is applied to the skin on the back of hairless mice (usually a test group of 5 mice for a given compound). The daily dose of the test compound is applied for 5 consecutive days, followed by two days when the test compound is not administered, and is thereafter administered again for 4 more consecutive days. On the 14th day the test animals if still alive, are sacrificed to perform certain studies and tests. In the meanwhile certain tests and observations are made on a daily basis with respect to body weight and skin condition. Skin condition is graded as “flaking/scaling” and “abrasion” on a scale of 0 to +5 where the various numbers correspond to the following observations.
Results of these tests are summarized in Table 3, where daily dose is expressed in nanomoles, weight loss of the test animals is in percentages at the end of the 14 day test period, or at the time the test animal expired, and mortality is expressed with the number of animals which died from a group of 5.

C/C(=C\c1ccc(C(=O)O)cc1)c1ccc2c(c1)C(C)(C)CCC2(C)C [AGN 191183, reference compound]
litters that exhibited teratogenic effects (gestating ICR mice; 0.1 mg/kg): 100%
# Litters Normal (gestating ICR mice; 0.01 mg/kg): 2
Teratogenic Effects % Cleft Palate (gestating ICR mice; 0.01 mg/kg): 29%
Teratogenic Effects % Limb Defects (gestating ICR mice; 0.01 mg/kg): 20%
Teratogenic Effects % Resorbed (gestating ICR mice; 0.01 mg/kg): 3%
# Litters Normal (gestating ICR mice; 0.1 mg/kg): 0
Teratogenic Effects % Cleft Palate (gestating ICR mice; 0.1 mg/kg): 100%
Teratogenic Effects % Limb Defects (gestating ICR mice; 0.1 mg/kg): 100%
Teratogenic Effects % Resorbed (gestating ICR mice; 0.1 mg/kg): 30%
# Litters Normal (gestating ICR mice; 1 mg/kg): 0
Teratogenic Effects % Resorbed (gestating ICR mice; 1 mg/kg): 100%
# Litters Normal (gestating ICR mice; 10 mg/kg): 0
Teratogenic Effects % Resorbed (gestating ICR mice; 10 mg/kg): 100%
inhibition of 3H-thymidine incorporation (effectiveness in sebocyte assay) (human sebocyte cultures): not effective
induction of transglutaminase activity [1]: inactive
Death/Total (female hairless mice; daily dose 7.5 nanomoles topical): 0/5
Death/Total (female hairless mice; daily dose 25 nanomoles topical): 0/5
Death/Total (female hairless mice; daily dose 75 nanomoles topical): 5/5
Death/Total (female hairless mice; daily dose 80 nanomoles topical): 5/5
